For orientation: IC50 means the concentration at which inhibition is half-maximal.

This experiment deals with T1, Kinesin-like protein KIF18A (Homo sapiens, UniProt Q8NI77).
T1 sequence (Q8NI77 whole entry): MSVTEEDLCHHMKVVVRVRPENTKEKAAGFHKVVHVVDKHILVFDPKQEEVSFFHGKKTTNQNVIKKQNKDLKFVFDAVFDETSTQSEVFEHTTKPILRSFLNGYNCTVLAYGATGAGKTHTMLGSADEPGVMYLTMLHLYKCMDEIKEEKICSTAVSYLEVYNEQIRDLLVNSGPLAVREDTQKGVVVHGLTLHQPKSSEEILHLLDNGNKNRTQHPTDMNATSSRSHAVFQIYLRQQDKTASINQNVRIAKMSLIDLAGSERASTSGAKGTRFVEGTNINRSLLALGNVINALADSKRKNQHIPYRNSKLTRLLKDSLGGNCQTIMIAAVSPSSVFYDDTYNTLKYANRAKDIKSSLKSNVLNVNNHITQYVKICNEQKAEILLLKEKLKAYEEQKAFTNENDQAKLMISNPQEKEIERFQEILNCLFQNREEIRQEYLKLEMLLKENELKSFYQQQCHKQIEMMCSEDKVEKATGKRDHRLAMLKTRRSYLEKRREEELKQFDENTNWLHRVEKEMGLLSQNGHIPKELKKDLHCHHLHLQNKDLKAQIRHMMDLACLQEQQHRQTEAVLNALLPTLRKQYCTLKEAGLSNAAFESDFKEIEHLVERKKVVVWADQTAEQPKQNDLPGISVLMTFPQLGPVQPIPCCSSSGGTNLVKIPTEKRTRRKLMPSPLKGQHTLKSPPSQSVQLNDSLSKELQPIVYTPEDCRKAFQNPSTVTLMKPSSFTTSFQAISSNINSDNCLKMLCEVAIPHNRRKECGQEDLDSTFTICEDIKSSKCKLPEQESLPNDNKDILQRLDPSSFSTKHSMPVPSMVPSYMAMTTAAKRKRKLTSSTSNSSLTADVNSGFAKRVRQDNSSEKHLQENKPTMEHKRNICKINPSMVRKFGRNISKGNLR
The experiment can be described thus: Inhibition of recombinant His-tagged human KIF18A (1 to 467 residues) expressed in baculovirus expression system assessed as inhibition of microtubule-stimulated ATPase activity preincubated for 15 mins followed by ATP addition and further incubated for 15 mins and measured after 40 mins by ADP-Glo reagent based assay.
On to `Cc1cc(NC(=O)c2ccc(NS(=O)(=O)CCO)cc2N2CCC3(CC2)CC3)nc(N2CC(F)(F)C2)c1`, for which the IC50 was found to be 24 nM. Turning to `C[C@@H]1CN(c2cccc(NC(=O)c3ccc(NS(=O)(=O)CC(F)F)cc3N3CCC4(CC3)CC4)n2)CCO1`, the IC50 was determined as 67 nM. The value for `O=C(Nc1cccc(OC(F)F)n1)c1ccc(NS(=O)(=O)CCO)cc1N1CCC2(CC1)CC2` was 45 nM.

Values taken from ChEMBL document CHEMBL5050848, “Kif18a inhibitors” (2020).
